The values below come from ChEMBL document CHEMBL1151871, “SAR around (l)-S-adenosyl-l-homocysteine, an inhibitor of human DNA methyltransferase (DNMT) enzymes” (Bioorg Med Chem Lett, 2009).

Active and inactive are the calls of the source. No cut-off for these calls is given here. A value given as a limit tells only on which side of the number the result lay.

The target in experiment [1] is DNA (cytosine-5)-methyltransferase 1 (Homo sapiens, UniProt P26358). The experiment in a line: Inhibition of human recombinant DNMT1 expressed in baculovirus infected high five insect cells.
The target of experiment [2] is T1, DNA (cytosine-5)-methyltransferase 3B (Homo sapiens, UniProt Q9UBC3). The experiment in a line: biochemical.
The target in experiment [3] is T1, DNA (cytosine-5)-methyltransferase 3B. Kind of experiment: Inhibition of human recombinant DNMT3b2 expressed in baculovirus infected high five insect cells at 45 uM.

DNA (cytosine-5)-methyltransferase 1, sequence (P26358 whole entry): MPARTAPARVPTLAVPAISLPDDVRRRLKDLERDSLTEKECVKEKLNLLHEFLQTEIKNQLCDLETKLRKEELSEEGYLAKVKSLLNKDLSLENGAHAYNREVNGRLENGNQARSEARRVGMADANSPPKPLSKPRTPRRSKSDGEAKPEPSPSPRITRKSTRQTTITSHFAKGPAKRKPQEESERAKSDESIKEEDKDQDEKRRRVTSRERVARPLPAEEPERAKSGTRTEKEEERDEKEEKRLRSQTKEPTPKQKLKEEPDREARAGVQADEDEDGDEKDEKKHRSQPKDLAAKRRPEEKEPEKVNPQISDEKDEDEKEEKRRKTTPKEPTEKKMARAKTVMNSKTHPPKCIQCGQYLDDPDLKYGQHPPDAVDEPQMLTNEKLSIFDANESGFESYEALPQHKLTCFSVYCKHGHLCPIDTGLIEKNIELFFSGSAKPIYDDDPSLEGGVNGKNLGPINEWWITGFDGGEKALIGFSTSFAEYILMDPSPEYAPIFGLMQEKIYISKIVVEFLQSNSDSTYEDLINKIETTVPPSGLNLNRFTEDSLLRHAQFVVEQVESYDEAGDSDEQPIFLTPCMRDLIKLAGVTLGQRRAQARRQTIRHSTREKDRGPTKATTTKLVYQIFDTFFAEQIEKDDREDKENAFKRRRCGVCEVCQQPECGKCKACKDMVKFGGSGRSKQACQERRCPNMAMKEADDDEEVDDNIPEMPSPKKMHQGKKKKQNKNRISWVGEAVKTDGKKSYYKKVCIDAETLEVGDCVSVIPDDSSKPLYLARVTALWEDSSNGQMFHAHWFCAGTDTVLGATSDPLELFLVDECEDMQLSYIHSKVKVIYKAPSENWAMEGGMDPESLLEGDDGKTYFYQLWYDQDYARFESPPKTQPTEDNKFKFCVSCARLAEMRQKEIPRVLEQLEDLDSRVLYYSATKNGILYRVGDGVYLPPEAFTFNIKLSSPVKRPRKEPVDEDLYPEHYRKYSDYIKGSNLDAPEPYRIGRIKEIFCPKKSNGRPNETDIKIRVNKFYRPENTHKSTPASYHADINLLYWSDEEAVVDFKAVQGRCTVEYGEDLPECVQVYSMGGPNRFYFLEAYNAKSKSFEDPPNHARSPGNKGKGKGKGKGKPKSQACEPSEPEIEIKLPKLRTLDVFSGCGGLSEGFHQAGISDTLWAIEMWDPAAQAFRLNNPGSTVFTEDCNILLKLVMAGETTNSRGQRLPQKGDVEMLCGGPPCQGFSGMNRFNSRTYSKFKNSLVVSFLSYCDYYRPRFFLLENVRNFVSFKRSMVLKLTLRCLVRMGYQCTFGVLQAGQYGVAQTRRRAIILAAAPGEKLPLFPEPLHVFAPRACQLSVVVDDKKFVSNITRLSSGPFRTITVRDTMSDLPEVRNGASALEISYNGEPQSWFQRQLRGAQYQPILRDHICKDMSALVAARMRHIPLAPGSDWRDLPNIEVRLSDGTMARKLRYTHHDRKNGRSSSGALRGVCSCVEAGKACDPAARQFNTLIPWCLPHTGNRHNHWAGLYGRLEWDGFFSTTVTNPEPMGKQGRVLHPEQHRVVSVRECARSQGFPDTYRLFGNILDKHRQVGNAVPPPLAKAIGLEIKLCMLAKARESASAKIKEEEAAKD

Broadly, the IC50 is the concentration needed to halve the response being measured. Turning to `Nc1ncnc2c1nnn2[C@@H]1O[C@H](CSCCC(N)C(=O)O)[C@@H](O)[C@H]1O` (some centres undefined), the IC50 in experiment [1] turned out to be 8 µM.

In the case of `NC(CCSC[C@H]1O[C@@H](n2cnc3c(NCc4ccccc4)ncnc32)[C@H](O)[C@@H]1O)C(=O)O` (some centres undefined), the 50% inhibitory concentration (IC50) in experiment [2] is 1 µM; in experiment [1] it was 61 µM. For `CSc1nc(N)c2ncn([C@@H]3O[C@H](CSCCC(N)C(=O)O)[C@@H](O)[C@H]3O)c2n1` (some centres undefined), the figures for the IC50 in experiment [2] and in experiment [1] were 500 µM and 216 µM, respectively. `N[C@@H](CCSC[C@H]1O[C@@H](n2cnc3c(=O)[nH]cnc32)[C@H](O)[C@@H]1O)C(=O)O`: in experiment [2], the half-maximal inhibitory concentration (IC50) was > 1000 µM. Regarding `COc1nc(N)c2ncn([C@@H]3O[C@H](CSCCC(N)C(=O)O)[C@@H](O)[C@H]3O)c2n1` (some centres undefined), in experiment [3], the inhibition entry was “inactive”. Moreover, in experiment [1], the concentration for half-maximal inhibition (IC50) came to 75 µM.

The compound `Nc1ncnc2c1ncn2[C@@H]1O[C@H](CSCC[C@H](N)C(=O)O)[C@@H](O)[C@H]1O` (racemic) [S-ADENOSYLHOMOCYSTEINE] displayed a concentration for half-maximal inhibition (IC50) in experiment [2] of 0.3 µM.
